Laboratory results as given in ChEMBL document CHEMBL1126305, “Synthesis and antiviral properties of (+/-)-5'-noraristeromycin and related purine carbocyclic nucleosides. A new lead for anti-human cytomegalovirus agent design” (1992).
In brackets after ≈: the same amount, converted by molar mass.

System: Vero
Experiment: Minimum inhibitory concentration required to reduce virus induced cytopathicity by 50% was determined against parainfluenza 3 virus in Vero cells
Assay type: functional, Homo sapiens
Conditions: Chlorocebus sabaeus

Structure (SMILES)	MIC
Oc1ncnc2c1ncn2C1C[C@H](O)[C@H](O)[C@@H]1O (some centres undefined)	> 200 µg/mL
Nc1nc(N)c2ncn(C3C[C@H](O)[C@H](O)[C@@H]3O)c2n1 (some centres undefined)	20 µg/mL (≈ 75.1 µM)

System: E6SM
Experiment: Minimum inhibitory concentration required to reduce virus induced cytopathicity by 50% was determined against HSV-1 virus in E6SM cells
Assay type: functional
Conditions: Homo sapiens

Structure (SMILES)	MIC
Oc1ncnc2c1ncn2C1C[C@H](O)[C@H](O)[C@@H]1O (some centres undefined)	300 µg/mL (≈ 1190 µM)
Nc1nc(N)c2ncn(C3C[C@H](O)[C@H](O)[C@@H]3O)c2n1 (some centres undefined)	300 µg/mL (≈ 1130 µM)

System: HeLa
Experiment: Minimum inhibitory concentration required to reduce virus induced cytopathicity by 50% was determined against vesicular stomatitis virus in HeLa cells
Assay type: functional
Conditions: Homo sapiens

Structure (SMILES)	MIC
Oc1ncnc2c1ncn2C1C[C@H](O)[C@H](O)[C@@H]1O (some centres undefined)	> 400 µg/mL
Nc1nc(N)c2ncn(C3C[C@H](O)[C@H](O)[C@@H]3O)c2n1 (some centres undefined)	70 µg/mL (≈ 263 µM)

System: Vero
Experiment: Minimum inhibitory concentration required to reduce virus induced cytopathicity by 50% was determined against semliki forest virus in Vero cells
Assay type: functional
Conditions: Chlorocebus sabaeus

Structure (SMILES)	MIC
Oc1ncnc2c1ncn2C1C[C@H](O)[C@H](O)[C@@H]1O (some centres undefined)	> 200 µg/mL
Nc1nc(N)c2ncn(C3C[C@H](O)[C@H](O)[C@@H]3O)c2n1 (some centres undefined)	> 200 µg/mL

System: Vero
Experiment: Minimum inhibitory concentration required to reduce virus induced cytopathicity by 50% was determined against reo type 1 virus in Vero cells
Assay type: functional
Conditions: Chlorocebus sabaeus

Structure (SMILES)	MIC
Oc1ncnc2c1ncn2C1C[C@H](O)[C@H](O)[C@@H]1O (some centres undefined)	> 200 µg/mL
Nc1nc(N)c2ncn(C3C[C@H](O)[C@H](O)[C@@H]3O)c2n1 (some centres undefined)	10 µg/mL (≈ 37.6 µM)

System: Vero
Experiment: Minimum inhibitory concentration required to reduce virus induced cytopathicity by 50% was determined against measles virus in Vero cells
Assay type: functional
Conditions: Chlorocebus sabaeus

Structure (SMILES)	MIC
Oc1ncnc2c1ncn2C1C[C@H](O)[C@H](O)[C@@H]1O (some centres undefined)	> 100 µg/mL
Nc1nc(N)c2ncn(C3C[C@H](O)[C@H](O)[C@@H]3O)c2n1 (some centres undefined)	20 µg/mL (≈ 75.1 µM)

System: HEL
Experiment: Minimum inhibitory concentration required to reduce virus induced cytopathicity by 50% was determined against TK- VZV virus in HEL cells
Assay type: functional
Conditions: Homo sapiens

Structure (SMILES)	MIC
Oc1ncnc2c1ncn2C1C[C@H](O)[C@H](O)[C@@H]1O (some centres undefined)	250 µg/mL (≈ 991 µM)
Nc1nc(N)c2ncn(C3C[C@H](O)[C@H](O)[C@@H]3O)c2n1 (some centres undefined)	165 µg/mL (≈ 620 µM)

System: Vero
Experiment: Minimum inhibitory concentration required to reduce virus induced cytopathicity by 50% was determined against junin virus in Vero cells
Assay type: functional
Conditions: Chlorocebus sabaeus

Structure (SMILES)	MIC
Oc1ncnc2c1ncn2C1C[C@H](O)[C@H](O)[C@@H]1O (some centres undefined)	> 100 µg/mL
Nc1nc(N)c2ncn(C3C[C@H](O)[C@H](O)[C@@H]3O)c2n1 (some centres undefined)	85 µg/mL (≈ 319 µM)

System: HeLa
Experiment: Minimum inhibitory concentration required to reduce virus induced cytopathicity by 50% was determined against coxsackie B4 virus in HeLa cells
Assay type: functional
Conditions: Homo sapiens

Structure (SMILES)	MIC
Oc1ncnc2c1ncn2C1C[C@H](O)[C@H](O)[C@@H]1O (some centres undefined)	> 400 µg/mL
Nc1nc(N)c2ncn(C3C[C@H](O)[C@H](O)[C@@H]3O)c2n1 (some centres undefined)	> 400 µg/mL

System: HeLa
Experiment: Minimum inhibitory concentration required to reduce virus induced cytopathicity by 50% was determined against polio 1 virus in HeLa cells
Assay type: functional
Conditions: Homo sapiens

Structure (SMILES)	MIC
Oc1ncnc2c1ncn2C1C[C@H](O)[C@H](O)[C@@H]1O (some centres undefined)	> 400 µg/mL
Nc1nc(N)c2ncn(C3C[C@H](O)[C@H](O)[C@@H]3O)c2n1 (some centres undefined)	> 400 µg/mL

System: E6SM
Experiment: Minimum inhibitory concentration required to reduce virus induced cytopathicity by 50% was determined against vesicular stomatitis virus in E6SM cells
Assay type: functional
Conditions: Homo sapiens

Structure (SMILES)	MIC
Oc1ncnc2c1ncn2C1C[C@H](O)[C@H](O)[C@@H]1O (some centres undefined)	> 300 µg/mL
Nc1nc(N)c2ncn(C3C[C@H](O)[C@H](O)[C@@H]3O)c2n1 (some centres undefined)	2 µg/mL (≈ 7.51 µM)

System: Vero
Experiment: Minimum inhibitory concentration required to reduce virus induced cytopathicity by 50% was determined against tacaribe virus in Vero cells
Assay type: functional, Homo sapiens
Conditions: Chlorocebus sabaeus

Structure (SMILES)	MIC
Oc1ncnc2c1ncn2C1C[C@H](O)[C@H](O)[C@@H]1O (some centres undefined)	> 100 µg/mL
Nc1nc(N)c2ncn(C3C[C@H](O)[C@H](O)[C@@H]3O)c2n1 (some centres undefined)	100 µg/mL (≈ 376 µM)

System: HeLa
Experiment: Minimum inhibitory concentration required to reduce virus induced cytopathicity by 50% was determined against respiratory syncytial virus in HeLa cells
Assay type: functional
Conditions: Homo sapiens

Structure (SMILES)	MIC
Oc1ncnc2c1ncn2C1C[C@H](O)[C@H](O)[C@@H]1O (some centres undefined)	> 100 µg/mL
Nc1nc(N)c2ncn(C3C[C@H](O)[C@H](O)[C@@H]3O)c2n1 (some centres undefined)	50 µg/mL (≈ 188 µM)

System: HEL
Experiment: Minimum inhibitory concentration required to reduce virus induced cytopathicity by 50% was determined against VZV virus in HEL cells
Assay type: functional
Conditions: Homo sapiens

Structure (SMILES)	MIC
Oc1ncnc2c1ncn2C1C[C@H](O)[C@H](O)[C@@H]1O (some centres undefined)	200 µg/mL (≈ 793 µM)
Nc1nc(N)c2ncn(C3C[C@H](O)[C@H](O)[C@@H]3O)c2n1 (some centres undefined)	230 µg/mL (≈ 864 µM)

System: Influenza A virus
Experiment: (§1) Minimum inhibitory concentration required to reduce virus induced cytopathicity by 50% was determined against influenza A virus in MDCK cells
Assay type: functional
Conditions: not given

Structure (SMILES)	MIC
Oc1ncnc2c1ncn2C1C[C@H](O)[C@H](O)[C@@H]1O (some centres undefined)	> 100 µg/mL

System: MDCK
Experiment: as §1
Assay type: functional
Conditions: Canis lupus familiaris

Structure (SMILES)	MIC
Nc1nc(N)c2ncn(C3C[C@H](O)[C@H](O)[C@@H]3O)c2n1 (some centres undefined)	> 100 µg/mL

Organism: Homo sapiens
Experiment: Minimum inhibitory concentration required to reduce virus induced cytopathicity by 50% was determined against HCMV virus in HEL cells
Assay type: functional
Conditions: not given

Structure (SMILES)	MIC
Oc1ncnc2c1ncn2C1C[C@H](O)[C@H](O)[C@@H]1O (some centres undefined)	250 µg/mL (≈ 991 µM)
Nc1nc(N)c2ncn(C3C[C@H](O)[C@H](O)[C@@H]3O)c2n1 (some centres undefined)	250 µg/mL (≈ 939 µM)

System: E6SM
Experiment: Minimum inhibitory concentration required to reduce virus induced cytopathicity by 50% was determined against TK- HSV-1 virus in E6SM cells
Assay type: functional
Conditions: Homo sapiens

Structure (SMILES)	MIC
Oc1ncnc2c1ncn2C1C[C@H](O)[C@H](O)[C@@H]1O (some centres undefined)	200 µg/mL (≈ 793 µM)
Nc1nc(N)c2ncn(C3C[C@H](O)[C@H](O)[C@@H]3O)c2n1 (some centres undefined)	> 200 µg/mL

System: Vero
Experiment: Minimum inhibitory concentration required to reduce virus induced cytopathicity by 50% was determined against coxsackie B4 virus in Vero cells
Assay type: functional
Conditions: Chlorocebus sabaeus

Structure (SMILES)	MIC
Oc1ncnc2c1ncn2C1C[C@H](O)[C@H](O)[C@@H]1O (some centres undefined)	> 200 µg/mL
Nc1nc(N)c2ncn(C3C[C@H](O)[C@H](O)[C@@H]3O)c2n1 (some centres undefined)	> 200 µg/mL

System: Influenza B virus
Experiment: (§2) Minimum inhibitory concentration required to reduce virus induced cytopathicity by 50% was determined against influenza B virus in MDCK cells
Assay type: functional
Conditions: not given

Structure (SMILES)	MIC
Oc1ncnc2c1ncn2C1C[C@H](O)[C@H](O)[C@@H]1O (some centres undefined)	> 100 µg/mL

System: MDCK
Experiment: as §2
Assay type: functional
Conditions: Canis lupus familiaris

Structure (SMILES)	MIC
Nc1nc(N)c2ncn(C3C[C@H](O)[C@H](O)[C@@H]3O)c2n1 (some centres undefined)	> 100 µg/mL

System: E6SM
Experiment: Minimum inhibitory concentration required to reduce virus induced cytopathicity by 50% was determined against HSV-2 virus in E6SM cells
Assay type: functional
Conditions: Homo sapiens

Structure (SMILES)	MIC
Oc1ncnc2c1ncn2C1C[C@H](O)[C@H](O)[C@@H]1O (some centres undefined)	300 µg/mL (≈ 1190 µM)
Nc1nc(N)c2ncn(C3C[C@H](O)[C@H](O)[C@@H]3O)c2n1 (some centres undefined)	> 300 µg/mL

System: E6SM
Experiment: Minimum inhibitory concentration required to reduce virus induced cytopathicity by 50% was determined against vaccinia virus in E6SM cells
Assay type: functional
Conditions: Homo sapiens

Structure (SMILES)	MIC
Oc1ncnc2c1ncn2C1C[C@H](O)[C@H](O)[C@@H]1O (some centres undefined)	> 300 µg/mL
Nc1nc(N)c2ncn(C3C[C@H](O)[C@H](O)[C@@H]3O)c2n1 (some centres undefined)	15 µg/mL (≈ 56.3 µM)

System: Vero
Experiment: Minimum inhibitory concentration required to reduce virus induced cytopathicity by 50% was determined against sindbis virus in Vero cells
Assay type: functional
Conditions: Chlorocebus sabaeus

Structure (SMILES)	MIC
Oc1ncnc2c1ncn2C1C[C@H](O)[C@H](O)[C@@H]1O (some centres undefined)	> 200 µg/mL
Nc1nc(N)c2ncn(C3C[C@H](O)[C@H](O)[C@@H]3O)c2n1 (some centres undefined)	> 200 µg/mL
